Results reported in patent publication US8288389B2, “Piperazine derivative having affinity for the histamine H3 receptor” (Glaxo Group Limited, priority 2007, dated 2012).
Where a name gives a salt, the structure may show the parent alone.

Legend:
[1] = system: rodent models; settings: five choice task, object recognition, elevated plus maze, acquisition of novel task, passive avoidance; cited from earlier work
[2] = Preliminary HCl-salt-formation and crystallisation experiments (relative stability of crystal forms); assay type: physicochemical; settings: compared with crystalline Form 1
Description: Crystalline Form 1 (or a predominance of crystalline Form 1) is often formed initially depending on the conditions, but, depending on the conditions (such as the type of solvent and the solubility of crystalline Form 1 in it, and/or the temperature and/or temperature time course, and/or the contact time of the crystalline Form 1 with the solvent), the crystalline Form 1 can then often convert to crystalline Form 2 to a greater or lesser extent when in contact with a suitable solvent i.e. a solvent suitable for converting crystalline Form 1 to crystalline Form 2.

[3] = system: male Sprague Dawley rats; assay: Toxicity Study 1: 7-day oral repeat-dose study in male Sprague Dawley rats; assay type: in vivo, rat; settings: for tolerability: male rats
Protocol: Three male rats were added at each non-zero dose level for toxicokinetic evaluation. All doses and concentrations, including analyte concentration in plasma, are expressed in terms of the parent “free base” compound.
The following endpoints/parameters were evaluated for toxicology animals: clinical observations, body weights, food consumption measurements, selected haematology and selected clinical chemistry results, liver weights, selected macroscopic and microscopic observations, and selected hepatic gene expression analysis. Toxicokinetic evaluation (serial profiling) was performed on samples collected from satellite animals on Days 1 and 7. For male rats dosed at 30 or 100 mg/kg/day, histopathology observations carried out were on kidneys, mesentery and mandibular lymph node only. For male rats dosed at 0 mg/kg/day (control) and 300 mg/kg/day, histopathology observations carried out were on adrenals, brain, heart, kidneys, liver, lung, mandibular lymph node, mesentery, stomach, testes, and thymus (except that mandibular lymph node observations were for 0 mg/kg/day dosed rats only).

[4] = Plasma clearance in the pig-PET study; assay type: in vivo, Yorkshire-Landrace pig; settings: 50 micrograms/kg i.v.
[5] = target: H3 receptor (Sus scrofa, UniProt A0A287B9V8); assay: Pig-PET study with [11C]GSK189254: pig brain H3 receptor occupancy over time and kon-koff limited model; settings: 50 micrograms/kg i.v.; for koff: iv
Chain of H3 receptor (A0A287B9V8 1-448): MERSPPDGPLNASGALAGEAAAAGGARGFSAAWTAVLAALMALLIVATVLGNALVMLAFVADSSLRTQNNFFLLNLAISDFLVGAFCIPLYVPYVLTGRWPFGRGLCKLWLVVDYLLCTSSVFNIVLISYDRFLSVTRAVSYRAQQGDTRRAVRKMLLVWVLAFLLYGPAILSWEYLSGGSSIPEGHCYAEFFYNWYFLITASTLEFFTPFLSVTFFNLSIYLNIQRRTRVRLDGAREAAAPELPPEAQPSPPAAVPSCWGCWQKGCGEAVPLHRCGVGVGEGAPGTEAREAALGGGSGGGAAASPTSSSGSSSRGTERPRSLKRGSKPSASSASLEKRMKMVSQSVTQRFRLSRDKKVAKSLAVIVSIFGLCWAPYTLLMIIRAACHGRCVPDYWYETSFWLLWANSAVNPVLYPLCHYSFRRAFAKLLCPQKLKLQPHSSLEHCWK

[6] = system: Sprague Dawley rats; assay: Toxicity Study 2: 7-day oral dose range-finding study in Sprague Dawley rats; assay type: in vivo, rat
Protocol: Three male rats and three female rats were added at 600 mg/kg/day and 3 female rats were added at 300 mg/kg/day for toxicokinetic evaluation.
The following endpoints/parameters were evaluated for toxicology animals: clinical observations, body weights, food consumption, selected haematology, selected clinical chemistry, liver weights, and selected macroscopic and microscopic observations. Toxicokinetic evaluation was performed on samples collected on Day 1 (300 and 600 mg/kg/day dosing) and Day 7 (300 mg/kg/day dosing only).

[7] = system: rats; settings: certain oral doses; passive avoidance, water maze, object recognition, attentional set shift; cited from earlier work
[8] = target: T1, histamine H3 receptor (Rattus norvegicus, UniProt Q9QYN8); settings: following oral administration to the rat; cited from earlier work
T1 construct: from tissue; host or cells: rat cerebral cortex, crude homogenate
T1 sequence (Q9QYN8 whole entry): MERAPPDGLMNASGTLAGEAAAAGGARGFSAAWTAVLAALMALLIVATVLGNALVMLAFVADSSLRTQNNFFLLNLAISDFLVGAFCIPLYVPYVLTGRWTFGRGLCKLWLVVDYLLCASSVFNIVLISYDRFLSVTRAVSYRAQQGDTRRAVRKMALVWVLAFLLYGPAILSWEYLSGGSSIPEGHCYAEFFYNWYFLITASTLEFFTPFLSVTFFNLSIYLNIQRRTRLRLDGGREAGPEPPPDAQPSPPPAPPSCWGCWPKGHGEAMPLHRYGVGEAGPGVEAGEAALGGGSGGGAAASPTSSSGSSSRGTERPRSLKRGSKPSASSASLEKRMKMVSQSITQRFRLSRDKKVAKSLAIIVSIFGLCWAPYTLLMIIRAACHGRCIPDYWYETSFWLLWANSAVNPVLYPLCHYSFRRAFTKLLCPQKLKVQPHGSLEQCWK

[9] = average model: derived from average plasma data and average occupancy

S=C(NC1CCCCC1)N1CCC(c2cnc[nH]2)CC1 [thioperamide]
effect in rodent cognition models [1]: cognitive enhancing properties

CC(C)N1CCN(C(=O)c2ccc(OC3CCOCC3)cc2)CC1 [Example 3]
thermodynamic stability of the crystal form [2]: more thermodynamically stable than crystalline Form 1

O=C(c1ccc(OCCCc2cnc[nH]2)cc1)C1CC1 [ciproxifan]
effect in rodent cognition models [1]: cognitive enhancing properties

CC(C)N1CCN(C(=O)c2ccc(OC3CCOCC3)cc2)CC1.Cl [Example E1]
tolerability ([3]; 300 mg/kg/day oral for 7 days (measured as the free base)): moderately well tolerated
tolerability ([3]; 30 or 100 mg/kg/day oral for 7 days (measured as the free base)): well tolerated
food consumption ([3]; rat, in vivo, po, 300 mg/kg/day): ca. 0.80 ×pretreatment
Plasma clearance ([4]; pig 1 (individual study)): 2.9 L/h
koff ([5]; PIG1, pig, pig 1 (individual study), estimated model parameter): 6.33e-05 s⁻¹
Kd (koff/kon) [5, 9]: 3.37 ng/mL
Kd (koff/kon) ([5]; mean of the individually estimated parameters, n=3 pigs): 3.35 ng/mL
reduction in pig brain H3 receptor occupancy over time, as compared to salt B ([5]; n=3 pigs, preliminary measurements): generally faster reduction in pig brain H3 receptor occupancy
koff ([5]; pig, average model: derived from average plasma data and average occupancy): 0.000152 s⁻¹
koff ([5]; pig, mean of the individually estimated parameters, n=3 pigs): 0.000243 s⁻¹
koff ([5]; pig, pig 2 (individual study), estimated model parameter): 0.00019 s⁻¹
koff ([5]; pig, pig 3 (individual study), estimated model parameter): 0.000477 s⁻¹
tolerability ([6]; female rats, 300 mg/kg/day oral for 7 days (measured as the free base)): moderately well tolerated
tolerability (preliminary conclusion from Toxicity Studies 1 and 2) ([6]; male and female rats, 7 days oral repeat dosing at doses of up to 300 mg/kg/day): well tolerated or moderately well tolerated

CC(C)N1CCCN(C(=O)c2ccc(OC3CCOCC3)cc2)CC1 [salt B, reference compound]
Plasma clearance ([4]; average model: derived from average plasma data): 2.9 L/h
Kd (koff/kon) [5, 9]: 1.80 ng/mL

NC(=NCc1ccc(Cl)cc1)SCCCc1cnc[nH]1 [clobenpropit]
effect in rodent cognition models [1]: cognitive enhancing properties

CNC(=O)c1ccc(Oc2ccc3c(c2)CCN(C2CCC2)CC3)nc1 [GSK189254]
performance of rats in cognition paradigms [7]: improved performance
[3]R-α-methylhistamine ex vivo binding in the rat cortex [8]: inhibited

CC(C)(C)CCC#C[C@@H]1C[C@H]1c1c[nH]cn1 [GT-2331]
effect in rodent cognition models [1]: cognitive enhancing properties
